From US4046897A, “5-Mercaptopyridoxine alkanesulfonates and methods of use and pharmaceutical compositions” (Merck & Co., Inc., priority 1976, dated 1977)
Counter-ions that a name gives are not always drawn.

Experiment: Comparison of thermal stability of 5-MP salts (pure unformulated compound, colorimetric assay for intact thiol group)
Type: physicochemical
Details: for Thermal Stability % Remaining: pure unformulated salt
Procedure: Thus, in order to evaluate the relative stability of several salts of 5-mercaptopyridoxine, the test salts selected (i.e., the ethane-1,2-disulfonate, the phosphate, the sulfamate, the nitrate and the hydrochloride) were subjected to accelerated conditions of high temperature as the pure, unformulated, compound. The high temperature date obtained at 80° C. and at 105° C. is conventionally used in the pharmaceutical industry to screen compounds in as short a time as possible. Where a number of derivatives or salts are available, comparative data can be obtained and the test compounds can be ranked in an expected order of stability. The thermally stressed salts were assayed colorimetrically for intact thiol group. The ethanedisulfonate, hydrochloride and sulfamate salts also were subjected to NMR analysis to confirm the chemical analysis. The NMR data supports the chemical data.

| Thermal Stability % Remaining (105° C, 3 days, 4320 min) [%] | Thermal Stability % Remaining (105° C, 7 days, 10080 min) [%] | Thermal Stability % Remaining (80° C, 1 week, 10080 min) [%] | Thermal Stability % Remaining (80° C, 1 week, 10080 min, hydrochloride) [%] | Thermal Stability % Remaining (80° C, 3 weeks, 30240 min, hydrochloride) [%] | Thermal Stability % Remaining (105° C, 3 days, hydrochloride, 4320 min) [%] | Thermal Stability % Remaining (80° C, 3 weeks, 30240 min) [%] | relative thermal/chemical stability among 5-MP salts (in words) (at the temperatures employed (80° C and 105° C)) | SMILES |
| --- | --- | --- | --- | --- | --- | --- | --- | --- |
| 93.0 | 58.0 | – | – | – | – | – | – | Cc1ncc(CS)c(CO)c1O [Phosphate] |
| – | – | 87.2 | – | – | – | – | – | Cc1ncc(CS)c(CO)c1O [Nitrate] |
| – | – | – | 70.5 | 57.3 | 57.3 | – | – | Cc1ncc(CS)c(CO)c1O [Hydrochloride, 5-mercaptopyridoxine hydrochloride] |
| 13.0 | 8.8 | 94.0 | – | – | – | 75.7 | – | Cc1ncc(CS)c(CO)c1O [Sulfamate] |
| 97.3 | 99.4 | 101.0 | – | – | – | 100.2 | most stable salt | Cc1ncc(CS)c(CO)c1O [Ethanedisulfonate, Bis(2-methyl-3-hydroxy-4-hydroxymethyl-5-mercaptomethyl-pyridinium) ethane-1,2-disulfonate] |
